ChEMBL document CHEMBL1949616, “Synthesis and human telomeric G-quadruplex DNA-binding activity of glucosaminosides of shikonin/alkannin” (Bioorg Med Chem Lett, 2012)
The source made the active and inactive calls. No cut-off for these calls is given here.

What was measured:
Assay type in all cases: nucleic-acid assay
[1] = tested on: Nucleic Acid; assay: Binding affinity to human telomeric G-quadruplex DNA at 200 uM after 1 hr by ESI-TOF-MS analysis
[2] = tested on: Nucleic Acid; assay: Binding affinity to human telomeric G-quadruplex DNA assessed as hypochromic effect at 10 uM at pH 7.6 by UV-Vis spectrophotometric analysis
[3] = tested on: Nucleic Acid; assay: Binding affinity to human telomeric DNA AGGGTTAGGGT at 200 uM after 1 hr by ESI-TOF-MS analysis
[4] = tested on: Nucleic Acid; assay: Binding affinity to human telomeric G-quadruplex DNA assessed as bathochromic shift at 10 uM at pH 7.6 by UV-Vis spectrophotometric analysis

Structure (SMILES) | Activity [1] | Activity [2] | Activity [3] | Activity [4]
CC(=O)N[C@H]1[C@H](O[C@H](CC=C(C)C)C2=CC(=O)c3c(O)ccc(O)c3C2=O)O[C@H](CO)[C@@H](O)[C@@H]1O | 47% | 32.8% | 16% | Active
COc1ccc2cc3[n+](cc2c1OC)CCc1cc2c(cc1-3)OCO2 | 58.9% | – | – | –

Results, then the compound that gave them:

Activity [1] | Activity [2] | Activity [3] | Activity [4] | Structure (SMILES)
0% | – | – | – | CC(C)=CC[C@H](O)C1=CC(=O)c2c(O)ccc(O)c2C1=O
39.3% | – | – | – | CC(=O)N[C@H]1[C@H](O[C@@H](CC=C(C)C)C2=CC(=O)c3c(O)ccc(O)c3C2=O)O[C@H](CO)[C@@H](O)[C@@H]1O
0% | – | – | – | CC(C)=CC[C@@H](O)C1=CC(=O)c2c(O)ccc(O)c2C1=O
